Measured values from article PMC4366722 (Iranian Journal of Basic Medical Sciences, 2015).
“Also recorded” adds a separate entry of the source.

What was measured:
mushroom tyrosinase = test: Diphenolase; type: biochemical; conditions: diphenolase activity
[1] = tested on: Melanoma cell lines (NCBI Code: C136; human skin); test: Cytotoxicity assay; type: cell-based; conditions: melanoma cells, 24 hr, MTT

Nc1ccccc1C(=O)O [2-amino benzoic acid]
Inhibition (reversibility) (mushroom tyrosinase): reversibly | Inhibition type (mushroom tyrosinase): noncompetitive | effect on melanoma cell viability / cytotoxicity (in words) [1]: no significant change

Nc1ccc(C(=O)O)cc1 [4-amino benzoic acid]
Inhibition (reversibility) (mushroom tyrosinase): reversibly | Inhibition type (mushroom tyrosinase): noncompetitive | effect on melanoma cell viability / cytotoxicity (in words) [1]: no significant change

O=C(O)c1cccnc1 [Nicotinic acid, nicotinic acid]
Inhibition (reversibility) (mushroom tyrosinase): reversibly | Inhibition type (mushroom tyrosinase): competitive | effect on melanoma cell viability / cytotoxicity (in words) [1]: declined remarkably; also recorded: cytotoxic effects

O=C(O)c1ccccn1 [Picolinic acid, picolinic acid]
Inhibition (reversibility) (mushroom tyrosinase): reversibly | Inhibition type (mushroom tyrosinase): competitive | effect on melanoma cell viability / cytotoxicity (in words) [1]: declined remarkably; also recorded: cytotoxic effects
